Data as given in PMC5458211, “Mitochondrial VDAC1-based peptides: Attacking oncogenic properties in glioblastoma” (Oncotarget, 2017).
Non-standard residues stand in square brackets, D forms with d. Residues, ends and D or L forms follow the SMILES beside them.

How the values were obtained:
U-87MG xenograft tumors = assay: TUNEL staining of xenograft tumor sections; assay type: in vivo, human U-87MG in nude mice; conditions: s.c. U-87MG tumor sections; Fig 4A
Source text: Red color indicates PI nuclear staining and green color TUNEL staining. B. Representative sections from PBS/DMSO- and peptide-TTs IHC stained for p53, Cyto c, AIF, Caspase 3 and Smac/Diablo and then hematoxylin-stained and visualized by microscopy. C. Tissue lysates obtained from controls and several Tf-D-LP4-TTs were immunoblotted for p53, Caspase 8, Cyto c, Smac/Diablo, Caspase 3 and Bcl-2. D. Quantitative analysis of immunoblots is shown (n=2-4).
Paraffin-embedded -fixed tumors sections were processed for a TUNEL assay using the DeadEnd Fluorometric TUNEL system (Promega) according to the manufacturer's instructions. Sections were deparaffinized, equilibrated in PBS, permeabilized with proteinase K, post-fixed in 4% paraformaldehyde, and incubated in TdT reaction mix for 1 h at 37 °C in the dark. Slides were then washed in 2X SSC buffer and counterstained with propidium iodide (1 μg/ml), and cover-slipped with Vectashield mounting medium. Fluorescent images of apoptotic cells (green) and cell nuclei (red) were captured using a confocal microscope (Olympus 1×81).

HK-I-GFP = HK-I-GFP detachment from mitochondria by confocal microscopy, SH-SY5Y; assay type: cell-based, human; conditions: 7 μM, 3 h, serum-free medium, Suppl Fig 2A
Protocol: Mitochondrial VDAC1-based peptides: Attacking oncogenic properties in glioblastoma […]
Cell culture cells were fixed for 15 min using 4% paraformaldehyde prepared in PBS, rinsed with PBS, permabilized with 0.3%
Human glioblastoma U-87MG, U-118MG, CRL- PBST, and stained with DAPI (1:2000). Cell imaging was 2610 (LN-18), U-251MG, human neuroblastoma SH- carried out by confocal microscopy (Olympus 1X81).
SY5Y, mouse glioma GL-261 and mouse neuroblastoma […]
Cellular ATP levels were estimated using a luciferase-based assay (CellTiter-Glo, Promega). […] ATP levels were cytosol was analyzed by immunoblotting. […]
luminescence was recorded using an Infinite M1000 plate peptide (3, 5, 10 μM for 3h), harvested, washed with reader (Tecan, Männedorf, Switzerland). […]
ﬂuoride) containing 0.02% digitonin and incubated for Mitochondrial membrane potential (ΔΨ) was 10 min on ice. Samples were centrifuged at 12,000xg at determined using tetramethylrhodamine methylester 4°C for 10 min to obtain supernatants (cytosolic extracts (TMRM) dye. U-87MG cells (6×10^5/ml) were incubated free of mitochondria) that were analyzed by SDS-PAGE with the indicated concentrations of D-ΔN-Ter-Antp and immuno-probed using anti-hexokinase antibodies, peptide for 3 h, washed twice with PBS, incubated with and then with secondary HRP-conjugated anti-rabbit tetramethylrhodamine methyl ester (TMRM, 800 nM, antibodies. […]

| Compound | TUNEL-positive cells (U-87MG xenograft tumors) | HK-I-GFP detachment (fluorescence distribution) (HK-I-GFP) |
| --- | --- | --- |
| CC[C@@H](C)[C@@H](NC(=O)[C@@H](CCCCN)NC(=O)[C@H](NC(=O)[C@@H](CCC(N)=O)NC(=O)[C@@H](CCCNC(=N)N)NC(=O)[C@@H](CC(C)C)NC(=O)CNC(=O)[C@@H](Cc1ccccc1)NC(=O)CNC(=O)[C@@H](Cc1ccc(O)cc1)NC(=O)CNC(=O)[C@@H](CCCCN)NC(=O)[C@H](NC(=O)[C@@H](Cc1ccccc1)NC(=O)[C@H](NC(=O)[C@@H](CC(=O)O)NC(=O)[C@H](N)CCCNC(=N)N)C(C)C)[C@H](C)O)[C@H](C)CC)C(=O)N[C@H](Cc1c[nH]c2ccccc12)C(=O)N[C@H](Cc1ccccc1)C(=O)N[C@H](CCC(N)=O)C(=O)N[C@H](CC(N)=O)C(=O)N[C@H](CCCNC(=N)N)C(=O)N[C@H](CCCNC(=N)N)C(=O)N[C@H](CCSC)C(=O)N[C@H](CCCCN)C(=O)N[C@H](Cc1c[nH]c2ccccc12)C(=O)N[C@H](CCCCN)C(=O)N[C@H](CCCCN)C(=O)O [D-ΔN-Ter-Antp] (H-[dR][dD][dV][dF][dT][dK]G[dY]G[dF]G[dL][dR][dQ][dI][dK][dI][dW][dF][dQ][dN][dR][dR][dM][dK][dW][dK][dK]-OH; N-terminus and C-terminus assumed) | the majority of the cells were TUNEL-positive | became diffuse |
| CC[C@H](C)[C@H](NC(=O)[C@H](C)NC(=O)[C@@H](N)Cc1c[nH]cn1)C(=O)N[C@@H](Cc1ccc(O)cc1)C(=O)N1CCC[C@H]1C(=O)N[C@@H](CCCNC(=N)N)C(=O)N[C@@H](Cc1c[nH]cn1)C(=O)N[C@@H](CO)C(=O)N[C@@H](Cc1c[nH]c2ccccc12)C(=O)N[C@H](C(=O)N[C@@H](Cc1c[nH]c2ccccc12)C(=O)N[C@@H](CCC(=O)O)C(=O)N[C@H](CCCCN)C(=O)N[C@H](CCCCN)C(=O)N[C@H](CC(C)C)C(=O)N[C@H](CCC(=O)O)C(=O)N[C@@H](C(=O)N[C@H](C)C(=O)N[C@@H](C(=O)N[C@H](CC(N)=O)C(=O)N[C@H](CC(C)C)C(=O)N[C@H](C)C(=O)N[C@H](Cc1c[nH]c2ccccc12)C(=O)N[C@@H](C(=O)N[C@H](C)C(=O)NCC(=O)N[C@H](CC(N)=O)C(=O)N[C@H](CO)C(=O)N[C@H](CC(N)=O)C(=O)N[C@@H](CCCCN)C(=O)N[C@@H](Cc1c[nH]c2ccccc12)C(=O)N[C@H](C(=O)N[C@@H](Cc1c[nH]c2ccccc12)C(=O)N[C@@H](CCCCN)C(=O)O)[C@@H](C)O)[C@H](C)O)C(C)C)[C@H](C)O)[C@@H](C)O [Tf-D-LP4] | the majority of the cells were TUNEL-positive | became diffuse |
